Reference: patent US11040031B2, “Pyrazole derivatives as MALT1 inhibitors” (Janssen Pharmaceutica NV, priority 2018, dated 2021)

The molecules below were run against T1, full-length MALT1 protein (Strep-MALT1(1-824)-His) (Homo sapiens, UniProt Q9UDY8) (assay: biochemical).
T1 sequence (Q9UDY8 1-824): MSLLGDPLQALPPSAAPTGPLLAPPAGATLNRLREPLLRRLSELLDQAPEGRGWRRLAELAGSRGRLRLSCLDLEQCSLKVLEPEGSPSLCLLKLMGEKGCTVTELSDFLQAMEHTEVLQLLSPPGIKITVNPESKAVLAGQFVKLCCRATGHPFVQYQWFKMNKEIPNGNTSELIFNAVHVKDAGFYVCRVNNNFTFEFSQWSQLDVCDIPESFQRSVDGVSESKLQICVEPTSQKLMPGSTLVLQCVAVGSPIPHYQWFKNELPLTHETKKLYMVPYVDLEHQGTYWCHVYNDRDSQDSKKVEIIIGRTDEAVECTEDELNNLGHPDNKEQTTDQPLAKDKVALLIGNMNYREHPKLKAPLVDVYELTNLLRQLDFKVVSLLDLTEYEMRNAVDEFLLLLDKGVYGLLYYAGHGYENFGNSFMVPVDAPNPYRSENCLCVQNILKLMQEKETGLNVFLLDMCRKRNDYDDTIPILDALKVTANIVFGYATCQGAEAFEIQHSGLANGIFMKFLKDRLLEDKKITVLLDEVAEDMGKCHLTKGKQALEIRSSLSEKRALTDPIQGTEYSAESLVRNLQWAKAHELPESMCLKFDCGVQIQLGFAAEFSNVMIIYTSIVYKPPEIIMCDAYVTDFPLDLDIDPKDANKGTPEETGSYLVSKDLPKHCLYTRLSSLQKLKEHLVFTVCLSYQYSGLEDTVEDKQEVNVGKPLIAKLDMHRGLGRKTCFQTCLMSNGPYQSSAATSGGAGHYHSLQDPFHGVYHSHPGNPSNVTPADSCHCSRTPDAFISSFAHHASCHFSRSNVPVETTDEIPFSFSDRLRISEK
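Note: fluorogenic LRSR-AMC substrate cleavage by MALT1, 50 min compound preincubation then 4 h reaction at RT, 11-point dilution from 30 µM, scaled between enzyme-free and untreated enzyme controls.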

Row | Structure (SMILES) | IC50
1 | N#Cc1cc(NC(=O)c2cnn(-c3ccc(F)c(Cl)c3)c2C(F)(F)F)cnc1-n1nccn1 [Cpd 109, 1-(3-chloro-4-fluorophenyl)-N-(5-cyano-6-(2H-1,2,3-triazol-2-yl)pyridin-3-yl)-5-(trifluoromethyl)-1H-pyrazole-4-carboxamide] | 0.427 µM
2 | N#Cc1ccc(-n2ncc(C(=O)Nc3cnc(-n4nccn4)c(Cl)c3)c2C(F)(F)F)c(Cl)c1 [Cpd 110, 1-(2-chloro-4-cyanophenyl)-N-(5-chloro-6-(2H-1,2,3-triazol-2-yl)pyridin-3-yl)-5-(trifluoromethyl)-1H-pyrazole-4-carboxamide] | 0.123 µM
3 | O=C(Nc1cnc(-n2nccn2)c(Cl)c1)c1cnn(-c2ccc(F)cc2C(F)(F)F)c1C(F)(F)F [Cpd 114, N-(5-chloro-6-(2H-1,2,3-triazol-2-yl)pyridin-3-yl)-1-(4-fluoro-2-(trifluoromethyl)phenyl)-5-(trifluoromethyl)-1H-pyrazole-4-carboxamide] | 1 µM
4 | N#Cc1cc(NC(=O)c2cnn(-c3ccc(F)cc3C(F)(F)F)c2C(F)(F)F)cnc1-n1nccn1 [Cpd 115, N-(5-cyano-6-(2H-1,2,3-triazol-2-yl)pyridin-3-yl)-1-(4-fluoro-2-(trifluoromethyl)phenyl)-5-(trifluoromethyl)-1H-pyrazole-4-carboxamide] | 0.363 µM
5 | COC(C)c1ccccc1-n1ncc(C(=O)Nc2cnc(-n3nccn3)c(Cl)c2)c1C(F)(F)F (stereo not drawn) [Cpd 118, N-(5-Chloro-6-(2H-1,2,3-triazol-2-yl)pyridin-3-yl)-1-(2-(1-methoxyethyl)phenyl)-5-(trifluoromethyl)-1H-pyrazole-4-carboxamide] | 2.95 µM
6 | O=C(Nc1cnc(-n2nccn2)c(Cl)c1)c1cnn(-c2ccc(F)nc2)c1C(F)(F)F [Cpd 121, N-(5-chloro-6-(2H-1,2,3-triazol-2-yl)pyridin-3-yl)-1-(6-fluoropyridin-3-yl)-5-(trifluoromethyl)-1H-pyrazole-4-carboxamide] | 1.17 µM
7 | CNc1ccc(-n2ncc(C(=O)Nc3cnc(-n4nccn4)c(Cl)c3)c2C(F)(F)F)cn1 [Cpd 122, N-(5-chloro-6-(2H-1,2,3-triazol-2-yl)pyridin-3-yl)-1-(6-(methylamino)pyridin-3-yl)-5-(trifluoromethyl)-1H-pyrazole-4-carboxamide] | 1.32 µM
8 | N#Cc1cc(NC(=O)c2cnn(-c3ccc(F)nc3)c2C(F)(F)F)cnc1-n1nccn1 [Cpd 123, N-(5-cyano-6-(2H-1,2,3-triazol-2-yl)pyridin-3-yl)-1-(6-(fluoro)pyridin-3-yl)-5-(trifluoromethyl)-1H-pyrazole-4-carboxamide] | 0.794 µM
9 | CNc1ccc(-n2ncc(C(=O)Nc3cnc(-n4nccn4)c(C#N)c3)c2C(F)(F)F)cn1 [Cpd 124, N-(5-cyano-6-(2H-1,2,3-triazol-2-yl)pyridin-3-yl)-1-(6-(methylamino)pyridin-3-yl)-5-(trifluoromethyl)-1H-pyrazole-4-carboxamide] | 1.2 µM
10 | Nc1ccc(-n2ncc(C(=O)Nc3cnc(-n4nccn4)c(Cl)c3)c2C(F)(F)F)cn1 [Cpd 125, 1-(6-aminopyridin-3-yl)-N-(5-chloro-6-(2H-1,2,3-triazol-2-yl)pyridin-3-yl)-5-(trifluoromethyl)-1H-pyrazole-4-carboxamide] | 1.91 µM
11 | CN1CCCc2c1cccc2-n1ncc(C(=O)Nc2cnc(-n3nccn3)c(C#N)c2)c1C(F)(F)F [Cpd 127, N-(5-cyano-6-(2H-1,2,3-triazol-2-yl)pyridin-3-yl)-1-(1-methyl-1,2,3,4-tetrahydroquinolin-5-yl)-5-(trifluoromethyl)-1H-pyrazole-4-carboxamide] | 0.372 µM
12 | N#Cc1cc(NC(=O)c2cnn(-c3cccc(N)n3)c2C(F)(F)F)cnc1-n1nccn1 [Cpd 134, 1-(6-aminopyridin-2-yl)-N-(5-cyano-6-(2H-1,2,3-triazol-2-yl)pyridin-3-yl)-5-(trifluoromethyl)-1H-pyrazole-4-carboxamide] | 0.263 µM
13 | N#Cc1cc(F)ccc1-n1ncc(C(=O)Nc2cnc(-n3nccn3)c(C#N)c2)c1C(F)(F)F [Cpd 135, 1-(2-cyano-4-fluorophenyl)-N-(5-cyano-6-(2H-1,2,3-triazol-2-yl)pyridin-3-yl)-5-(trifluoromethyl)-1H-pyrazole-4-carboxamide] | 0.525 µM
14 | N#Cc1cc(F)ccc1-n1ncc(C(=O)Nc2cnc(-n3nccn3)c(Cl)c2)c1C(F)(F)F [Cpd 136, N-(5-chloro-6-(2H-1,2,3-triazol-2-yl)pyridin-3-yl)-1-(2-cyano-4-fluorophenyl)-5-(trifluoromethyl)-1H-pyrazole-4-carboxamide] | 0.759 µM
15 | CS(=O)(=O)c1ccccc1-n1ncc(C(=O)Nc2cnc(-n3nccn3)c(Cl)c2)c1C(F)(F)F [Cpd 138, N-(5-chloro-6-(2H-1,2,3-triazol-2-yl)pyridin-3-yl)-1-(2-(methylsulfonyl)phenyl)-5-(trifluoromethyl)-1H-pyrazole-4-carboxamide] | 5.49 µM
16 | O=C(Nc1cnc(-n2nccn2)c(Cl)c1)c1cnn(-c2ccc(F)c(N3CC(O)C3)n2)c1C(F)(F)F [Cpd 151, N-(5-chloro-6-(2H-1,2,3-triazol-2-yl)pyridin-3-yl)-1-(5-fluoro-6-(3-hydroxyazetidin-1-yl)pyridin-2-yl)-5-(trifluoromethyl)-1H-pyrazole-4-carboxamide] | 2.4 µM
17 | N#Cc1cc(NC(=O)c2cnn(-c3ccc(F)c(N4CC(O)C4)n3)c2C(F)(F)F)cnc1-n1nccn1 [Cpd 152, N-(5-cyano-6-(2H-1,2,3-triazol-2-yl)pyridin-3-yl)-1-(5-fluoro-6-(3-hydroxyazetidin-1-yl)pyridin-2-yl)-5-(trifluoromethyl)-1H-pyrazole-4-carboxamide] | 0.832 µM
18 | Cc1c[n+]([O-])ccc1-n1ncc(C(=O)Nc2cnc(-n3nccn3)c(Cl)c2)c1C(F)(F)F [Cpd 153, 4-(4-((5-chloro-6-(2H-1,2,3-triazol-2-yl)pyridin-3-yl)carbamoyl)-5-(trifluoromethyl)-1H-pyrazol-1-yl)-3-methylpyridine 1-oxide] | 4.9 µM
19 | Cc1cnc(Cl)cc1-n1ncc(C(=O)Nc2cnc(-n3nccn3)c(Cl)c2)c1C(F)(F)F [Cpd 154, 1-(2-chloro-5-methyl-4-pyridyl)-N-[5-chloro-6-(triazol-2-yl)-3-pyridyl]-5-(trifluoromethyl)pyrazole-4-carboxamide] | 0.955 µM
20 | Cc1c(-n2ncc(C(=O)Nc3cnc(-n4nccn4)c(Cl)c3)c2C(F)(F)F)ccnc1Cl [Cpd 155, 1-(2-chloro-3-methylpyridin-4-yl)-N-(5-chloro-6-(2H-1,2,3-triazol-2-yl)pyridin-3-yl)-5-(trifluoromethyl)-1H-pyrazole-4-carboxamide] | 0.257 µM
21 | Cc1cnc(N2CC(O)C2)cc1-n1ncc(C(=O)Nc2cnc(-n3nccn3)c(Cl)c2)c1C(F)(F)F [Cpd 156, N-(5-chloro-6-(2H-1,2,3-triazol-2-yl)pyridin-3-yl)-1-(2-(3-hydroxyazetidin-1-yl)-5-methylpyridin-4-yl)-5-(trifluoromethyl)-1H-pyrazole-4-carboxamide] | 1.29 µM
22 | Cc1c(-n2ncc(C(=O)Nc3cnc(-n4nccn4)c(Cl)c3)c2C(F)(F)F)ccnc1N1CC(O)C1 [Cpd 157, N-(5-chloro-6-(2H-1,2,3-triazol-2-yl)pyridin-3-yl)-1-(2-(3-hydroxyazetidin-1-yl)-3-methylpyridin-4-yl)-5-(trifluoromethyl)-1H-pyrazole-4-carboxamide] | 8.13 µM
23 | Cc1ccnnc1-n1ncc(C(=O)Nc2cnc(-n3nccn3)c(Cl)c2)c1C(F)(F)F [Cpd 159, N-(5-chloro-6-(2H-1,2,3-triazol-2-yl)pyridin-3-yl)-1-(4-methylpyridazin-3-yl)-5-(trifluoromethyl)-1H-pyrazole-4-carboxamide] | 3.16 µM
24 | Cc1nc(-n2ncc(C(=O)Nc3cnc(-n4nccn4)c(Cl)c3)c2C(F)(F)F)ccc1F [Cpd 161, N-(5-chloro-6-(2H-1,2,3-triazol-2-yl)pyridin-3-yl)-1-(5-fluoro-6-methylpyridin-2-yl)-5-(trifluoromethyl)-1H-pyrazole-4-carboxamide] | 0.741 µM
25 | O=C(Nc1cnc(-n2nccn2)c(Cl)c1)c1cnn(-c2nc(Cl)ccc2Cl)c1C(F)(F)F [Cpd 163, N-(5-chloro-6-(2H-1,2,3-triazol-2-yl)pyridin-3-yl)-1-(3,6-dichloropyridin-2-yl)-5-(trifluoromethyl)-1H-pyrazole-4-carboxamide] | 0.794 µM
26 | N#Cc1cc(NC(=O)c2cnn(-c3nc(Cl)ccc3C(F)(F)F)c2C(F)(F)F)cnc1-n1nccn1 [Cpd 164, 1-(6-chloro-3-(trifluoromethyl)pyridin-2-yl)-N-(5-cyano-6-(2H-1,2,3-triazol-2-yl)pyridin-3-yl)-5-(trifluoromethyl)-1H-pyrazole-4-carboxamide] | 1.41 µM
27 | O=C(Nc1cnc(-n2nccn2)c(Cl)c1)c1cnn(-c2nc(Cl)ccc2C(F)(F)F)c1C(F)(F)F [Cpd 165, 1-(6-chloro-3-(trifluoromethyl)pyridin-2-yl)-N-(5-chloro-6-(2H-1,2,3-triazol-2-yl)pyridin-3-yl)-5-(trifluoromethyl)-1H-pyrazole-4-carboxamide] | 2.29 µM
